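The compound was tested at five concentrations on cells cultured in 96-well plates, with a 48-hour exposure period. GI50: concentration for 50% inhibition of growth.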 Activity calls are given as the source filed them. No stated cut-off is given here; in the data, active = GI50 up to about 1.1 µM and inactive = higher.
Tests used:
Assay in all cases: inhibition of tumour cell growth, NCI panel, 48 h
[1] = tested on: CCRF-CEM
[2] = tested on: MDA-N
[3] = tested on: SN12C
[4] = tested on: IGROV-1
[5] = tested on: COLO 205
[6] = tested on: RXF 393
[7] = tested on: HCC 2998
[8] = tested on: A549
[9] = tested on: MDA-MB-231
[10] = tested on: SK-OV-3
[11] = tested on: K562
[12] = tested on: OVCAR-3
[13] = tested on: HOP-92
[14] = tested on: 786-0
[15] = tested on: M14
[16] = tested on: SK-MEL-5
[17] = tested on: NCI-H226
[18] = tested on: MDA-MB-435
[19] = tested on: UACC-62
[20] = tested on: HCT-116

| SMILES | GI50 [1] | GI50 [2] | GI50 [3] | GI50 [4] | GI50 [5] | GI50 [6] | GI50 [7] | GI50 [8] | GI50 [9] | GI50 [10] | GI50 [11] | GI50 [12] | GI50 [13] | GI50 [14] | GI50 [15] | GI50 [16] | GI50 [17] | GI50 [18] | GI50 [19] | GI50 [20] |
| --- | --- | --- | --- | --- | --- | --- | --- | --- | --- | --- | --- | --- | --- | --- | --- | --- | --- | --- | --- | --- |
| COC1(OC)c2no[n+]([O-])c2CCC1O (stereo not given) | > 100 µM (inactive) | > 100 µM (inactive) | > 100 µM (inactive) | > 100 µM (inactive) | > 100 µM (inactive) | > 100 µM (inactive) | > 100 µM (inactive) | > 100 µM (inactive) | > 100 µM (inactive) | > 100 µM (inactive) | > 100 µM (inactive) | > 100 µM (inactive) | 0.0255 µM (active) | > 100 µM (inactive) | > 100 µM (inactive) | > 100 µM (inactive) | > 100 µM (inactive) | > 100 µM (inactive) | > 100 µM (inactive) | > 100 µM (inactive) |
| COc1cccc(C2c3cc4c(cc3OC(NNS(=O)(=O)c3ccc(C)cc3)C2C)OCO4)c1O (stereo not given) | 10 µM (inactive) | 24.5 µM (inactive) | 37 µM (inactive) | 26.9 µM (inactive) | 17.8 µM (inactive) | 21.3 µM (inactive) | 31.1 µM (inactive) | 18.6 µM (inactive) | 20.4 µM (inactive) | 38.8 µM (inactive) | 10.2 µM (inactive) | 18.9 µM (inactive) | 33.8 µM (inactive) | 0.537 µM (active) | 24.7 µM (inactive) | 20.4 µM (inactive) | 27.9 µM (inactive) | 23.4 µM (inactive) | 22 µM (inactive) | 15.3 µM (inactive) |

From ChEMBL document CHEMBL1201862, “PubChem BioAssay data set” (2004)
